Measurements reported in the NIST ThermoML archive (doi:10.1016/j.tca.2009.03.005).

Key:
[1] = molar heat capacity at constant pressure; settings: 101.33 kPa
[2] = DTA
[3] = Molar enthalpy of transition or fusion; settings: Crystal 2; DSC

O=N[O-].[Na+] [sodium nitrite]
[1]
Settings	molar heat capacity at constant pressure [J/K/mol]
273.15 K, Crystal 3, Small sample (50 mg) DSC	85.2
278.15 K, Crystal 3, Small sample (50 mg) DSC	85.3
283.15 K, Crystal 3, Small sample (50 mg) DSC	86
288.15 K, Crystal 3, Small sample (50 mg) DSC	86.6
293.15 K, Crystal 3, Small sample (50 mg) DSC	87.3
298.15 K, Crystal 3, Small sample (50 mg) DSC	88.1
303.15 K, Crystal 3, Large sample (1 g) DSC	85.3
303.15 K, Crystal 3, Small sample (50 mg) DSC	88.8
308.15 K, Crystal 3, Small sample (50 mg) DSC	90.1
313.15 K, Crystal 3, Small sample (50 mg) DSC	90.8
318.15 K, Crystal 3, Small sample (50 mg) DSC	91.8
323.15 K, Crystal 3, Large sample (1 g) DSC	89.3
323.15 K, Crystal 3, Small sample (50 mg) DSC	92.8
328.15 K, Crystal 3, Small sample (50 mg) DSC	94
333.15 K, Crystal 3, Small sample (50 mg) DSC	95.3
338.15 K, Crystal 3, Small sample (50 mg) DSC	96.7
343.15 K, Crystal 3, Large sample (1 g) DSC	94.1
343.15 K, Crystal 3, Small sample (50 mg) DSC	98
348.15 K, Crystal 3, Small sample (50 mg) DSC	99.8
353.15 K, Crystal 3, Small sample (50 mg) DSC	101.3
358.15 K, Crystal 3, Small sample (50 mg) DSC	102.5
363.15 K, Crystal 3, Large sample (1 g) DSC	99.9
363.15 K, Crystal 3, Small sample (50 mg) DSC	103.5
368.15 K, Crystal 3, Small sample (50 mg) DSC	106.2
373.15 K, Crystal 3, Small sample (50 mg) DSC	108.2
378.15 K, Crystal 3, Small sample (50 mg) DSC	109.9
383.15 K, Crystal 3, Large sample (1 g) DSC	107.8
383.15 K, Crystal 3, Small sample (50 mg) DSC	111.6
388.15 K, Crystal 3, Small sample (50 mg) DSC	115.3
393.15 K, Crystal 3, Small sample (50 mg) DSC	118.2
398.15 K, Crystal 3, Small sample (50 mg) DSC	121.5
403.15 K, Crystal 3, Large sample (1 g) DSC	119.3
403.15 K, Crystal 3, Small sample (50 mg) DSC	124.4
408.15 K, Crystal 3, Small sample (50 mg) DSC	130
413.15 K, Crystal 3, Small sample (50 mg) DSC	135.6
418.15 K, Crystal 3, Small sample (50 mg) DSC	142.7
419.15 K, Crystal 3, Small sample (50 mg) DSC	144.39
420.15 K, Crystal 3, Small sample (50 mg) DSC	146.16
421.15 K, Crystal 3, Small sample (50 mg) DSC	148.05
422.15 K, Crystal 3, Small sample (50 mg) DSC	150.11
423.15 K, Crystal 3, Small sample (50 mg) DSC	152.4
424.15 K, Crystal 3, Small sample (50 mg) DSC	154.72
425.15 K, Crystal 3, Small sample (50 mg) DSC	157.33
426.15 K, Crystal 3, Small sample (50 mg) DSC	160.25
427.15 K, Crystal 3, Small sample (50 mg) DSC	163.31
428.15 K, Crystal 3, Small sample (50 mg) DSC	166.7
429.15 K, Crystal 3, Small sample (50 mg) DSC	170.6
430.15 K, Crystal 3, Small sample (50 mg) DSC	175.1
431.15 K, Crystal 3, Small sample (50 mg) DSC	180.4
437.25 K, Crystal 2, Small sample (50 mg) DSC	215.4
437.35 K, Crystal 2, Small sample (50 mg) DSC	213.7
437.45 K, Crystal 2, Small sample (50 mg) DSC	213.5
437.55 K, Crystal 2, Small sample (50 mg) DSC	213.7
437.75 K, Crystal 2, Small sample (50 mg) DSC	215.5
437.85 K, Crystal 2, Small sample (50 mg) DSC	217.1
437.95 K, Crystal 2, Small sample (50 mg) DSC	220.4
438.05 K, Crystal 2, Small sample (50 mg) DSC	223.4
438.15 K, Crystal 2, Small sample (50 mg) DSC	223.6
468.15 K, Crystal 1, Small sample (50 mg) DSC	129
473.15 K, Crystal 1, Small sample (50 mg) DSC	129.8
478.15 K, Crystal 1, Small sample (50 mg) DSC	130.8
483.15 K, Crystal 1, Large sample (1 g) DSC	131.6
483.15 K, Crystal 1, Small sample (50 mg) DSC	131.9
488.15 K, Crystal 1, Small sample (50 mg) DSC	133.2
493.15 K, Crystal 1, Small sample (50 mg) DSC	134.7
498.15 K, Crystal 1, Small sample (50 mg) DSC	136
503.15 K, Crystal 1, Large sample (1 g) DSC	138.7
503.15 K, Crystal 1, Small sample (50 mg) DSC	137.8
508.15 K, Crystal 1, Small sample (50 mg) DSC	140
513.15 K, Crystal 1, Small sample (50 mg) DSC	142.4
518.15 K, Crystal 1, Small sample (50 mg) DSC	145.2
521.15 K, Crystal 1, Small sample (50 mg) DSC	147.7
522.15 K, Crystal 1, Small sample (50 mg) DSC	148.5
523.15 K, Crystal 1, Large sample (1 g) DSC	148.8
523.15 K, Crystal 1, Small sample (50 mg) DSC	148.9
524.15 K, Crystal 1, Small sample (50 mg) DSC	149.8
525.15 K, Crystal 1, Small sample (50 mg) DSC	150.9
526.15 K, Crystal 1, Small sample (50 mg) DSC	152
527.15 K, Crystal 1, Small sample (50 mg) DSC	153
528.15 K, Crystal 1, Small sample (50 mg) DSC	153.2
529.15 K, Crystal 1, Small sample (50 mg) DSC	155
530.15 K, Crystal 1, Small sample (50 mg) DSC	156
531.15 K, Crystal 1, Small sample (50 mg) DSC	157.5
532.15 K, Crystal 1, Small sample (50 mg) DSC	158.7
533.15 K, Crystal 1, Large sample (1 g) DSC	161.2
533.15 K, Crystal 1, Small sample (50 mg) DSC	160.2
534.15 K, Crystal 1, Small sample (50 mg) DSC	161.8
535.15 K, Crystal 1, Small sample (50 mg) DSC	163.1
536.15 K, Crystal 1, Small sample (50 mg) DSC	165.7
537.15 K, Crystal 1, Small sample (50 mg) DSC	168
538.15 K, Crystal 1, Small sample (50 mg) DSC	169.8
539.15 K, Crystal 1, Small sample (50 mg) DSC	173.2
540.15 K, Crystal 1, Small sample (50 mg) DSC	176.4

[1], Liquid, Small sample (50 mg) DSC
Settings	molar heat capacity at constant pressure [J/K/mol]
562.15 K	116.8
563.15 K	110
564.15 K	110.2
565.15 K	109.9
566.15 K	110.2
568.15 K	110.9
573.15 K	111.9
578.15 K	112.3
583.15 K	112.6

[2]
Settings	Normal melting temperature [°C]	Triple point temperature [K]
Crystal 1	280.1	–
Crystal 2	–	438.7
Crystal 3	–	437.2

Settings	Molar enthalpy of transition or fusion [kcal/mol]
[3]	3.32
